In publication PMC4161390, “Design and Synthesis of a Cell-Permeable, Drug-Like Small Molecule Inhibitor Targeting the Polo-Box Domain of Polo-Like Kinase 1” (PLoS ONE, 2014):

Biological target: T1, Polo-like kinase 1 polo-box domain (Plk1-PBD) (Homo sapiens, UniProt P53350)
T1 construct: HA-EGFP-Plk1 in mitotic 293A lysates
Experiment: ELISA-based Plk1 PBD competition assay (moderate activity)
Assay type: biochemical

T1 sequence (P53350 whole entry, the tested form may be a part): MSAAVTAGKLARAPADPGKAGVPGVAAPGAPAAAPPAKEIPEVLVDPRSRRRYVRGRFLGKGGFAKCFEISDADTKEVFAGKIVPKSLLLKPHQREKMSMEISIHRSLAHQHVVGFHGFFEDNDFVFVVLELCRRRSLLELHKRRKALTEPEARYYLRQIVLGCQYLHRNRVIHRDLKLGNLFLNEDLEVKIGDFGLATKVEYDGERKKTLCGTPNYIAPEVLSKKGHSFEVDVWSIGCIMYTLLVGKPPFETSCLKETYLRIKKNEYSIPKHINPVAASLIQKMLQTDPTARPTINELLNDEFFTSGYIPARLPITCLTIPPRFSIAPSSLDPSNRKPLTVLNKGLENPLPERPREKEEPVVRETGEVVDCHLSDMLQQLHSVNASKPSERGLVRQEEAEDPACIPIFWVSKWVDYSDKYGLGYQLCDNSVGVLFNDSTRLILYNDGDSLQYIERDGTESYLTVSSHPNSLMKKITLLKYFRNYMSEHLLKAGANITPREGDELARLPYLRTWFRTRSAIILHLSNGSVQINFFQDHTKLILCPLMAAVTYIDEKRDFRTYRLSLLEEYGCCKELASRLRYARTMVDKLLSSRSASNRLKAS

## O=c1c(O)cccc2cc(O)c(O)c(O)c12 [PPG, purpurogallin]
  ELISA-based Plk1 PBD competition assay (moderate activity): PPG PLS5 Bg-5 Bg-6|moderate weak weak weak|
